Patent US20250381117A1 (MARY KAY INC., priority 2024, published 2025)
Where two headings read alike, the source gives them in different places.

What was measured:
[1] = Solubility Analyses (Example 1): dissolution in water; type: physicochemical
[2] = at 25° C., cited from earlier work

- dissolution in water ([1]; melatonin 1.2% (w/w) in the absence of caffeine): did not completely dissolve
- dissolution in water ([1]; melatonin 2% (w/w) in the absence of caffeine): did not dissolve completely
Compound: COc1ccc2[nH]cc(CCNC(C)=O)c2c1 [melatonin]
- solubility in water [2]: approximately 0.01 g/100 mL
- solubility in water ([2]; same value given in percent): approximately 0.01%
